Tests used:
[1] = target: T1, Potassium voltage-gated channel subfamily A member 3 (Homo sapiens, UniProt P22001); assay: cell-based; set-up: species or system Blood
[2] = target: T1, Potassium voltage-gated channel subfamily A member 3; set-up: species or system Blood

T1 sequence (P22001 whole entry): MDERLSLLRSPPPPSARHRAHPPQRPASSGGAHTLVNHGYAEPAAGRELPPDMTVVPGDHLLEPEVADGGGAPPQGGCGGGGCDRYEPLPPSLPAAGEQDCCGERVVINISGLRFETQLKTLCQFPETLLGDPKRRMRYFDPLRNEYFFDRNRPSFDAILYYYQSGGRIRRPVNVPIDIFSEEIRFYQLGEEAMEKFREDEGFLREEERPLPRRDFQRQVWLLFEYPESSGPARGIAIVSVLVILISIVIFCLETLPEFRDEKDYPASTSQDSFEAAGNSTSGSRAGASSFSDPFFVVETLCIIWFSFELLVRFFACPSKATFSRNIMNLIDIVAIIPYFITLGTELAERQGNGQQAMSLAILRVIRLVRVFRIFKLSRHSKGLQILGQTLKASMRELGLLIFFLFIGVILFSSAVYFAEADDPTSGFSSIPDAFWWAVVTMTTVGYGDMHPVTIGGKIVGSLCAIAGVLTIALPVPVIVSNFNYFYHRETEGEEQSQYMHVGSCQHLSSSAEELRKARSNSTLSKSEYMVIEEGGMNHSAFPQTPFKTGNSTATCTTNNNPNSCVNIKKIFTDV

Row | Structure (SMILES) | IC50 [1] [nM] | IC50 [2] [nM]
1 | CC[C@H](C)[C@@H]1NC(=O)[C@@H](NC(=O)[C@H](CO)NC(=O)[C@@H](N)CCCNC(=N)N)CSSC[C@@H](C(=O)O)NC(=O)[C@H]([C@@H](C)O)NC(=O)CNC(=O)[C@@H]2CSSC[C@@H]3NC(=O)[C@H](CCC(N)=O)NC(=O)[C@H](Cc4ccccc4)NC(=O)[C@H](C)NC(=O)[C@H]([C@@H](C)O)NC(=O)[C@H](CSSC[C@H](NC(=O)[C@H](Cc4ccccc4)NC(=O)[C@H](CO)NC(=O)[C@H](CC(C)C)NC(=O)[C@H](CCCNC(=N)N)NC(=O)[C@H](Cc4ccc(O)cc4)NC(=O)[C@H](CCCCN)NC(=O)[C@H](CCSC)NC(=O)[C@H](CO)NC(=O)[C@H](CCCCN)NC(=O)[C@H](CCCCN)NC3=O)C(=O)N[C@@H](CCCNC(=N)N)C(=O)N[C@@H](CCCCN)C(=O)N[C@@H]([C@@H](C)O)C(=O)N2)NC(=O)[C@H](CCCNC(=N)N)NC(=O)[C@H](CO)NC(=O)[C@H](CCCCN)NC(=O)[C@@H]2CCCN2C(=O)[C@H]([C@@H](C)CC)NC(=O)[C@H]([C@@H](C)O)NC(=O)[C@H](CC(=O)O)NC1=O | 0.041 | 0.089
2 | CC[C@H](C)[C@@H]1NC(=O)[C@@H](NC(=O)[C@H](CO)NC(=O)[C@@H](N)CCCNC(=N)N)CSSC[C@@H](C(=O)O)NC(=O)[C@H]([C@@H](C)O)NC(=O)CNC(=O)[C@@H]2CSSC[C@@H]3NC(=O)[C@H](CCC(N)=O)NC(=O)[C@H](Cc4ccccc4)NC(=O)[C@H](C)NC(=O)[C@H]([C@@H](C)O)NC(=O)[C@H](CSSC[C@H](NC(=O)[C@H](Cc4ccccc4)NC(=O)[C@H](CO)NC(=O)[C@H](CCCCN)NC(=O)[C@H](CCCNC(=N)N)NC(=O)[C@H](Cc4ccc(O)cc4)NC(=O)[C@H](CCCCN)NC(=O)[C@H](CCSC)NC(=O)[C@H](CO)NC(=O)[C@H](Cc4cnc[nH]4)NC(=O)[C@H](CCCCN)NC3=O)C(=O)N[C@@H](CCCNC(=N)N)C(=O)N[C@@H](CCCCN)C(=O)N[C@@H]([C@@H](C)O)C(=O)N2)NC(=O)[C@H](CCCNC(=N)N)NC(=O)[C@H](CO)NC(=O)[C@H](CCCCN)NC(=O)[C@@H]2CCCN2C(=O)[C@H]([C@@H](C)CC)NC(=O)[C@H]([C@@H](C)O)NC(=O)[C@H](CC(=O)O)NC1=O | 0.226 | 0.366
3 | CC[C@H](C)[C@@H]1NC(=O)[C@@H](NC(=O)[C@H](CO)NC(=O)[C@@H](N)CCCNC(=N)N)CSSC[C@@H](C(=O)O)NC(=O)[C@H]([C@@H](C)O)NC(=O)CNC(=O)[C@@H]2CSSC[C@@H]3NC(=O)[C@H](CCC(N)=O)NC(=O)[C@H](Cc4ccccc4)NC(=O)[C@H](C)NC(=O)[C@H]([C@@H](C)O)NC(=O)[C@H](CSSC[C@H](NC(=O)[C@H](Cc4ccccc4)NC(=O)[C@H](CO)NC(=O)[C@H](CC(C)C)NC(=O)[C@H](CCCNC(=N)N)NC(=O)[C@H](Cc4ccc(O)cc4)NC(=O)[C@H](CCCCN)NC(=O)[C@H](CCSC)NC(=O)[C@H](CO)NC(=O)[C@H](Cc4c[nH]cn4)NC(=O)[C@H](CCCCN)NC3=O)C(=O)N[C@@H](CCCNC(=N)N)C(=O)N[C@@H](CCCCN)C(=O)N[C@@H](CCCCN)C(=O)N2)NC(=O)[C@H](CCCNC(=N)N)NC(=O)[C@H](CO)NC(=O)[C@H](CCCCN)NC(=O)[C@@H]2CCCN2C(=O)[C@H]([C@@H](C)CC)NC(=O)[C@H]([C@@H](C)O)NC(=O)[C@H](CC(=O)O)NC1=O | 5.98 | 27.9
